Measured values published in PMC5177629, “Selective Estrogen Receptor Modulators: Cannabinoid Receptor Inverse Agonists with Differential CB1 and CB2 Selectivity” (Frontiers in Pharmacology, 2016).
Read-outs that look alike come from different tables or passages of the source. Marks after values point to notes of the source that are not given here.

Assays:
[1] = target: T1, human cannabinoid type-1 receptors (hCB1) (Homo sapiens, UniProt P21554); test: Competition receptor binding with [3H]CP-55,940, CHO-hCB1 membranes
T1 construct: host or cells: CHO cells (CHO-hCB1), membranes or intact cells
Method: (§1) In short, pellets were thawed on ice, combined in a 40 ml glass Dounce homogenizer and homogenized in 20 ml of cold buffer (50 mM HEPES at pH 7.4, 3 mM MgCl2, and 1 mM EGTA) using 10 strokes. Homogenates were then centrifuged at 40,000 × g for 10 min at 4°C. After discarding the supernatant, pellets were homogenized and centrifuged twice more. Final pellets were re-suspended in ice-cold 50 mM HEPES, pH 7.4, aliquoted and stored at -80°C for future use. Protein concentration was determined the same day, prior to freezing, using BCA^TM Protein Assay (Thermo Fisher Scientific, Waltham, MA, USA).
The final volume of each sample was 1 ml, containing 50 mM Tris-HCl buffer (pH 7.4), 0.05% bovine serum albumin, 5 mM MgCl2, increasing concentrations of non-radioactive competing SERM ligands, and either 100 μg of CHO-hCB1 or 50 μg of CHO-hCB2 membrane homogenates. […] Each sample condition was performed in triplicate and allowed to reach equilibrium at room temperature for 90 min. Reactions were terminated by rapid vacuum filtration through Whatman GF/B glass fiber filters (Brandel, Inc.), followed by four 4 ml washes of ice-cold filtration buffer (50 mM Tris at pH 7.4 and 0.05% BSA). Filter punches of individual samples were placed in scintillation vials containing 4 mls of ScintiverseTM BD cocktail scintillation fluid (Fisher Scientific, Pittsburg, PA, USA). Final counts were determined using liquid scintillation spectrophotometry (Tri Carb 2100 TR Liquid Scintillation Analyzer, Packard Instrument Company, Meriden, CT, USA) after overnight incubation.
(§2) Statistical analyses were conducted by utilizing GraphPad Prism v6.0g (GraphPad Software, Inc.; San Diego, CA, USA). IC50 values from competition receptor binding curves were derived by non-linear regression. […] Non-linear regression analysis of concentration-effect curves was also used to determine potency (ED50 or IC50) and efficacy (Emax or Imax) for modulation of GTPγS and adenylyl cyclase activity, respectively. All IC50, EC50, Ki, and Kb values were converted to pEC50, pIC50, pKi, and pKb values in order to permit use of parametric statistical analyses. For all experiments comparing three or more values, an one-way ANOVA was employed, followed by Dunnett’s or Tukey’s post hoc tests. For comparisons of two values, an unpaired t-test was utilized. To determine significant radioligand displacement or modulation of G-protein activity compared to basal levels, a one-sample t-test was employed.
For initial comparison of potential SERM binding to CBRs, 14 commercially available compounds from 5 structurally distinct classes (Figure 1) were subjected to a radioligand binding screen (Figure 2).

[2] = target: T1, human cannabinoid type-1 receptors (hCB1); test: [35S]GTPγS binding, CHO-hCB1 membranes; type: biochemical; conditions: for IMAX, GTPγS Binding (% Basal) CHO-hCB1: maximal reduction of basal G-protein activity
Method: as §1
(§3) Non-specific binding was defined by radioactivity remaining in the presence of 10 μM of non-radioactive GTPγS. All reactions were incubated for 30 min at 30°C, terminated by filtration through Whatman GF/B glass fiber filters (Brandel, Inc.) and followed by four 4 ml washes of ice cold filtration buffer (50 mM HEPES, pH 7.4) containing 0.1% bovine serum albumin. Filter punches of individual samples were placed in scintillation vials containing 4 mls of ScintiverseTM BD cocktail scintillation fluid (Fisher Scientific, Pittsburg, PA, USA). Final counts were determined using liquid scintillation spectrophotometry (Tri Carb 2100 TR Liquid Scintillation Analyzer, Packard Instrument Company, Meriden, CT, USA) after overnight incubation.
as §2
CBRs are coupled to Gi/Go type G-proteins. Therefore, binding of agonists to CBRs leads to G-protein activation, antagonists produce no effect, and inverse agonists reduce basal G-protein activity produced by constitutively active receptors. SERMs were screened by examining the ability of a single receptor saturating concentration (10 μM) to modulate G-protein activity in membranes prepared from CHO-hCB1 and CHO-hCB2 cells. G-protein activation was quantified using employing [^35S]GTPγS, a non-hydrolyzable analog of GTP, that irreversibly binds to the G-proteins when activated.

[3] = target: T2, human mu opioid receptors (hMOR) (Homo sapiens, UniProt P35372); test: [35S]GTPγS binding, CHO-hMOR membranes (control devoid of CBRs); type: biochemical; conditions: 10 μM
T2 construct: expressed in transfected cells; host or cells: CHO cells (CHO-hMOR), membranes or intact cells
Method: as §3

[4] = target: T3, human mu opioid receptors (CHO-hMOR cells) (Homo sapiens, UniProt P35372); test: Adenylyl cyclase assay, CHO-hMOR cells (control not expressing hCB2Rs); type: cell-based; conditions: 10 μM
T3 construct: expressed in transfected cells; host or cells: CHO cells (CHO-hMOR), membranes or intact cells
T3 sequence (P35372 whole entry): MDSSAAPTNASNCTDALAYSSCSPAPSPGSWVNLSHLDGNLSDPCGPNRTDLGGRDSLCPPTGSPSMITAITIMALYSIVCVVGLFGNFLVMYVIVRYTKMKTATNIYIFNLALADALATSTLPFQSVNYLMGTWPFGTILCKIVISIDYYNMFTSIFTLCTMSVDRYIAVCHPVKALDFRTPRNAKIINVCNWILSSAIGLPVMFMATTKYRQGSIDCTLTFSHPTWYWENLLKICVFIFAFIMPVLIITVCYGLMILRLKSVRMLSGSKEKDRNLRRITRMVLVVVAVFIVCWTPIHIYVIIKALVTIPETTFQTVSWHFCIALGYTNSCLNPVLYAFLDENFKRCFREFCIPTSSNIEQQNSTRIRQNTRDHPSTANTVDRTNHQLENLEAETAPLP

T1 sequence (P21554 whole entry): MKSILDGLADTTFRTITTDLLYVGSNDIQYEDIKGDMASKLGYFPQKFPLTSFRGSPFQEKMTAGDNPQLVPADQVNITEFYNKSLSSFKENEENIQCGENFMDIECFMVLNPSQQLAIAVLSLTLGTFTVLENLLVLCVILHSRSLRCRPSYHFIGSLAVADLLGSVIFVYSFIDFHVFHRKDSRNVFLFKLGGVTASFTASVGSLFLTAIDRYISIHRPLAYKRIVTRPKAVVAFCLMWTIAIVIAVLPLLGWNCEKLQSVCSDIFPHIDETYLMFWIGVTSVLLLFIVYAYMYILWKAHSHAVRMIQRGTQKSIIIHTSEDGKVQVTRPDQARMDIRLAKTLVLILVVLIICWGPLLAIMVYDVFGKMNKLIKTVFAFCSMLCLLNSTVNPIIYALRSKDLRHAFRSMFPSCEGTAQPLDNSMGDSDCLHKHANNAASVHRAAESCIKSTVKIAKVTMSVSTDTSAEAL
T2 sequence (P35372 whole entry): as the sequence (P35372 whole entry) above

Structure (SMILES)	Ki ([1]; CHO-hCB1 membranes, Cheng-Prusoff from IC50) [nM]	Selectivity (CB1/CB2) ([1]; ratio of Ki hCB1 / Ki hCB2)	IMAX, GTPγS Binding (% Basal) CHO-hCB1 [2]	IC50 ([2]; reduction of basal G-protein activity, CHO-hCB1 membranes, read-out: IC50, GTPγS Binding CHO-hCB1) [nM]	Ki [1] [nM]	displacement of [3H]CP-55,940 from hCB1Rs ([1]; single 1 μM concentration, 0.2 nM [3H]CP-55,940, CHO-hCB1)	decrease in basal G-protein activity, CHO-hMOR [3] [%]	IC50 [2] [nM]	reduction of basal G-protein activity, hCB1Rs ([2]; CHO-hCB1 membranes, 10 μM) [%]	effect on basal cAMP levels, CHO-hMOR cells [4]
COc1ccc2c(c1)CCC(c1ccccc1)=C2c1ccc(OCCN2CCCC2)cc1 [NAF, nafoxidine]	957	0.74	31.7 ± 1.5^a %	524						
OCCOc1ccc(/C(=C(/CCCl)c2ccccc2)c2ccccc2)cc1 [OSP, ospemifene]			30.3 ± 2.0^a %		753	approximately 50%	11	170	~30	
Cc1c(-c2ccc(O)cc2)n(Cc2ccc(OCCN3CCCCCC3)cc2)c2ccc(O)cc12 [BAZ, bazedoxifene]										only slightly altered
